Paper PMC9044058 (The Journal of General Physiology, 2022)
Values joined by “and” are separate entries in the source; they are usually repeats but may differ in a detail not shown here. Equal values may be shown once. Read-outs that look alike come from different tables or passages of the source. Values belong to the compound of their own block, whether it stands above or below them.

How the values were obtained:
[1] = tested on: GltPh Y317F; design: method as in Riederer and Valiyaveetil, 2019; settings: ref Riederer and Valiyaveetil, 2019; cited from earlier work
[2] = biological target: T1, P-GltPh (S279E/D405N) (Pyrococcus horikoshii, UniProt O59010, D37H/D405N/E368H/K125H/K132H/K223H/K264H/K40H/S279E); assay type: binding; settings: for n1 / n2: single trials; for % n2 / ΔS1: trials and avg (mean ± SD); for fitted OFS2 fraction: L-Asp ITC, 500 mM sodium salt
T1 construct: (His)8 behind a thrombin cleavage site (C, cleaved yes); made in house; host or cells: Escherichia coli DH10B
T1 sequence (O59010 1-417 D37H/K40H/K125H/K132H/K223H/K264H/S279E/E368H/D405N): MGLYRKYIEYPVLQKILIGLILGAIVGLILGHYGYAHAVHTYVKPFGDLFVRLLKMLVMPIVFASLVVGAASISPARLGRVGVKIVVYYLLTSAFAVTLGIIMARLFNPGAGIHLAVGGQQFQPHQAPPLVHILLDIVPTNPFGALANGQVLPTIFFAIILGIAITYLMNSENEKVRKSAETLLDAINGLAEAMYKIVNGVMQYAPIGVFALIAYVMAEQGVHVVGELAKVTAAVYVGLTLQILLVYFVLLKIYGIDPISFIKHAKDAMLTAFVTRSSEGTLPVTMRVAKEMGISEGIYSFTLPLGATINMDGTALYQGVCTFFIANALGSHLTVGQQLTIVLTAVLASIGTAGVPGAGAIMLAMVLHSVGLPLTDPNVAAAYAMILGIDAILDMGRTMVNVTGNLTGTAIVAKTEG
Experimental: (§1) Proteins were immediately concentrated to >5 mg/ml and diluted 2.5-fold to a final concentration of 30–50 µM. When diluted, the sample was supplemented with a final concentration of 1 mM DDM, 58 mM HEPES/KOH, pH 7.4, and an appropriate amount of sodium salt. 350 μl of protein samples was degassed and equilibrated to the temperature of the experiment, and ∼300 μl was loaded into the reaction cell of a small-volume NanoITC (TA Instruments), or in the case of TFB-TBOA experiments, an Affinity Auto ITC (TA Instruments). […] 2 μl of titrant was injected every 5–6 min, at a constant temperature and a stirring rate of 250 rpm (125 rpm for TFB-TBOA experiments). Injection heats measured after protein was saturated with the ligand were used to determine the dilution heats subtracted from the ligand binding heats. Data were analyzed using NanoAnalyze software (TA Instruments) applying either the “independent” or “multiple sites” (referred to as “single-state” and “two-state,” respectively, throughout the text) binding models. […] The fraction of total protein bound is given by the following: [PS]/[P]=n1K1[S]/1+K1[S]+n2K2[S]/1+K2[S], where ni is the apparent number of sites per protein molecule.

[3] = tested on: liposome-reconstituted GltPh; design: method as in Hall et al., 2020; settings: ref Hall et al., 2020; cited from earlier work
[4] = biological target: T2, WT GltPh (Pyrococcus horikoshii, UniProt O59010, D37H/E368H/K125H/K132H/K223H/K264H/K40H); test: ITC of L-Asp and TFB-TBOA binding to WT GltPh
T2 construct: (His)8 behind a thrombin cleavage site (C, cleaved yes); made in house; host or cells: Escherichia coli DH10B
T2 sequence (O59010 1-417 D37H/K40H/K125H/K132H/K223H/K264H/E368H): as the sequence (O59010 1-417 D37H/K40H/K125H/K132H/K223H/K264H/S279E/E368H/D405N) above, with E279S, N405D counted along it
Experimental: as §1
For the TFB-TBOA competition experiments, protein was first titrated with TBOA to saturation. Then, the concentration of TFB-TBOA was increased to a final concentration of 150 μM of TFB-TBOA, so that the overflow protein was also saturated.

[5] = tested on: D390A mutant; design: method as in Riederer and Valiyaveetil, 2019; settings: ref Riederer and Valiyaveetil, 2019; cited from earlier work
[6] = biological target: T3, GltPh (C321A/N378C) (Pyrococcus horikoshii, UniProt O59010, C321A/D37H/E368H/K125H/K132H/K223H/K264H/K40H/N378C); assay type: biochemical; settings: 200 mM sodium salt, 1 μM valinomycin, 1 μM L-Asp; triexponential fit; means and SEM
T3 construct: (His)8 behind a thrombin cleavage site (C, cleaved yes); made in house; host or cells: Escherichia coli DH10B
T3 sequence (O59010 1-417 D37H/K40H/K125H/K132H/K223H/K264H/C321A/E368H/N378C): as the sequence (O59010 1-417 D37H/K40H/K125H/K132H/K223H/K264H/S279E/E368H/D405N) above, with E279S, C321A, N378C, N405D counted along it
Experimental: Liposomes were prepared from a 3:1 (wt/wt) mixture of E. coli polar lipid extract (Avanti Polar Lipids) and egg phosphatidylcholine in SM-KCl buffer (50 mM HEPES/Tris, pH 7.4, and 200 mM KCl). Liposomes were extruded through 400-nm filters (Whatman Nucleopore) using a syringe extruder (Avanti), and destabilized by the addition of Triton X-100 at 1:2 (wt/wt) detergent-to-lipid ratio. Labeled GltPh was added to the liposome suspension at 1:1,000 (wt/wt) protein-to-lipid ratio at room temperature for 30 min. Detergent was removed by six rounds incubation of Bio-Beads (two rounds at 23°C for 2 h each, one round at 4°C overnight, and three rounds at 4°C for 2 h each). The excess substrate was removed by three rounds of centrifugation for 1 h at 49,192 g at 4°C, removal of the supernatant, addition of 1 ml fresh SM buffer, and three freeze/thaw cycles. Liposomes were concentrated to 50 mg/ml, and ccPEB1a-Y198F labeled with activated LD555P-MAL and LD655-MAL dyes as described ([Ciftci et al., 2020]) was added at a final concentration of 0.6 μM and encapsulated by two freeze–thaw cycles. To remove unencapsulated ccPEB1a-Y198F, 1 ml of SM-KCl buffer was added, and liposomes were centrifuged for 1 h at 49.192 g at 4°C. […]
Buffers were supplemented with an oxygen-scavenging system as above, and the smFRET movies were recorded with 400-ms integration time using 20–40-mW laser power. […]
Traces were analyzed using Spartan software ([Juette et al., 2016]). […] Traces with multiple photobleaching events (indicative of multiple sensors in a liposome) or inconsistent total fluorescence intensity were also discarded. Remaining traces were sorted by either the presence or absence of observable transport events (responding and nonresponding traces, respectively), determined by an increase in FRET efficiency from ∼0.55–0.6 to ∼0.75–0.8.
Responding traces from each video were plotted as time-dependent mean FRET efficiency. Buffer replacement time was determined as described ([Ciftci et al., 2020]). […]

[7] = tested on: GltPh; design: method as in earlier work; settings: OFS over IFS; ref Mcilwain et al., 2016; Boudker et al., 2007; Wang and Boudker, 2020; cited from earlier work
[8] = biological target: P-GltPh (S279E/D405N) (UniProt O59010); test: cryo-EM structure; P-GltPh in 0.8 mM DDM, 20 mM HEPES/Tris pH 7.4, 250 mM NaNO3, 1 mM L-Asp; C3 symmetry imposed, then symmetry expansion and focused classification of single protomers; Data S2 (L-Asp present throughout purification) and Data S1 (L-Asp added ~5 s before freezing)
[9] = 500 mM NaCl, 10°C and 15°C, n = 6
[10] = 10°C, 500 mM NaCl, two-state model
[11] = 15°C, 500 mM NaCl, two-state model
[12] = 500 mM Na-gluconate, 15°C, Fit 1
[13] = 500 mM Na-gluconate, 15°C, Fit 2

Compound: N[C@@H](CC(=O)O)C(=O)O [L-Asp, L-aspartate]
loss of L-Asp affinity [1]: 10 fold
sums of the apparent stoichiometries (n1 and n2 values), average [2, 9]: 0.97 ± 0.26
sums of the apparent stoichiometries (n1 and n2 values), range [2, 9]: 0.74–1.53
n1 [2, 10]: 0.61 and 0.64 and 0.78
n2 [2, 10]: 0.13 and 0.20 and 0.18
% n2 [2, 10]: 18% and 24% and 19%
ΔS1 [2, 10]: 32.2 cal mol^-1 K^-1 and 40.0 cal mol^-1 K^-1 and 31.1 cal mol^-1 K^-1
ΔH ([2]; 15°C, 50 mM NaCl, single-state model): -2.3 kcal/mol
ΔH ([2]; 15°C, 500 mM Na-gluconate, two-state model, first state): -2.3 kcal/mol
ΔH ([2]; 15°C, 500 mM Na-gluconate, two-state model, second state): -5.5 kcal/mol
ΔH ([2]; 15°C, 500 mM NaCl, two-state model, first state): -3.3 kcal/mol
ΔH ([2]; 15°C, 500 mM NaCl, two-state model, second state): -7.1 kcal/mol
n1 [2, 11]: 1.13 and 0.64 and 0.63
n2 [2, 11]: 0.39 and 0.22 and 0.29
% n2 [2, 11]: 26% and 31%
ΔS1 [2, 11]: 29.4 cal mol^-1 K^-1 and 29.2 cal mol^-1 K^-1 and 31.4 cal mol^-1 K^-1
ΔH ([2]; 15°C, 500 mM NaNO3, two-state model, first state): -2.1 kcal/mol
ΔH ([2]; 15°C, 500 mM NaNO3, two-state model, second state): -6.5 kcal/mol
ΔH ([2]; 15°C, 1 M NaCl, two-state model, first state): -3.7 kcal/mol
ΔH ([2]; 15°C, 1 M NaCl, two-state model, second state): -8.7 kcal/mol
Hill coefficient [3]: 0.69
n1 [4, 12]: 0.82
n2 [4, 12]: 0.36
ΔH1 [4, 12]: -22.7 kcal/mol
ΔH2 [4, 12]: 39.4 kcal/mol
n1 [4, 13]: 0.37
n2 [4, 13]: 0.89
ΔH1 [4, 13]: -50.0 kcal/mol
ΔH2 [4, 13]: 16.2 kcal/mol
n1 ([4]; 500 mM Na-gluconate, 35°C): 0.16
n2 ([4]; 500 mM Na-gluconate, 35°C): 1.30
ΔH1 ([4]; 500 mM Na-gluconate, 35°C): -24.6 kcal/mol
ΔH2 ([4]; 500 mM Na-gluconate, 35°C): -4.7 kcal/mol
shape of ITC competition isotherms ([4]; GltPh saturated with TFB-TBOA, competed with L-Asp, 15°C): bimodal isotherms
lower affinity versus GltPh [5]: 1,000 fold

Compound: O=C([O-])[C@H](O)[C@@H](O)[C@H](O)[C@H](O)CO.[Na+] [Na-gluconate, sodium gluconate]
Slow (%) transporter population [6]: 81.1 ± 3.1%

Compound: [Cl-].[Na+] [NaCl]
Slow (%) transporter population [6]: 79.5 ± 3.4%
fitted OFS2 fraction ([2]; 10°C): ~20%
fitted OFS2 fraction ([2]; 15°C): ~28%

Compound: O=[N+]([O-])[O-].[Na+] [NaNO3]
Slow (%) transporter population [6]: 87.3 ± 2.2%
fitted OFS2 fraction ([2]; 15°C): ~38%

Compound: N[C@H](C(=O)O)[C@H](OCc1cccc(NC(=O)c2ccc(C(F)(F)F)cc2)c1)C(=O)O [TFB-TBOA]
shape of ITC binding isotherms ([4]; 15°C, 500 mM Na-gluconate, NaCl or NaNO3): bimodal ITC isotherms
preference for OFS [7]: 100 fold

stoichiometry N [8]: 3
Compound: P-GltPh (S279E/D405N) (from UniProt O59010 1-417)
